What was measured:
[1] = molecular target: T1, G-protein coupled receptor 55 (Homo sapiens, UniProt Q9Y2T6); experiment: Antagonist activity at recombinant human GPR55 expressed in CHO cells assessed as inhibition of lysophosphatidylinositol-induced beta-arrestin recruitment preincubated for 60 mins followed by lysophosphatidylinositol addition for 90 mins measured for 1 sec by luminescence assay; assay type: functional, cell-based
Cannabinoid receptor 1 = Cannabinoid receptor 1 (Homo sapiens, UniProt P21554); experiment: Displacement of [3H]CP55940 from recombinant human CB1 receptor expressed in CHO cell membranes after 2 hrs by liquid scintillation counting method; conditions: for inhibition: concentration not given here
[2] = molecular target: T1, G-protein coupled receptor 55; experiment: Agonist activity at recombinant human GPR55 expressed in CHO cells assessed as increase in beta-arrestin recruitment incubated for 60 mins measured for 1 sec by luminescence assay; assay type: functional, cell-based
[3] = molecular target: T2, N-arachidonyl glycine receptor (Homo sapiens) (UniProt Q14330); experiment: (§1) Agonist activity at recombinant human GPR18 expressed in CHO cells assessed as increase in beta-arrestin recruitment incubated for 60 mins measured for 1 sec by luminescence assay; assay type: functional, cell-based
T2 sequence (whole entry): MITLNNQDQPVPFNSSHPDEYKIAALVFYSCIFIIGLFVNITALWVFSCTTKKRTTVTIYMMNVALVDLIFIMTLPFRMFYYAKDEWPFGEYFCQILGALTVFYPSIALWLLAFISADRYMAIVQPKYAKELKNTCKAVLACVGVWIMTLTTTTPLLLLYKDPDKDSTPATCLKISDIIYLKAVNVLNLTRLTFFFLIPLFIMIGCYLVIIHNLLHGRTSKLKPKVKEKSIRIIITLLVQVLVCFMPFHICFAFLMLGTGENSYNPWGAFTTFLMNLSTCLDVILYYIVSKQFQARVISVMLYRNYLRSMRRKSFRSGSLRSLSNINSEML

[4] = molecular target: T3, N-arachidonyl glycine receptor (Homo sapiens, UniProt Q14330); experiment: as §1; assay type: functional, cell-based
T3 sequence (Q14330 whole entry): T2 sequence (whole entry)

Cannabinoid receptor 2 = Cannabinoid receptor 2 (Homo sapiens, UniProt P34972); experiment: Displacement of [3H]CP55940 from recombinant human CB2 receptor expressed in CHO cell membranes after 2 hrs by liquid scintillation counting method; conditions: for inhibition: concentration not given here
[5] = molecular target: T2, N-arachidonyl glycine receptor (Homo sapiens); experiment: (§2) Antagonist activity at recombinant human GPR18 expressed in CHO cells assessed as inhibition of delta9-THC-induced beta-arrestin recruitment preincubated for 60 mins followed by delta9-THC addition for 90 mins measured for 1 sec by luminescence assay; assay type: functional, cell-based
[6] = molecular target: T3, N-arachidonyl glycine receptor; experiment: as §2; assay type: functional, cell-based

Cannabinoid receptor 2, sequence (P34972 whole entry): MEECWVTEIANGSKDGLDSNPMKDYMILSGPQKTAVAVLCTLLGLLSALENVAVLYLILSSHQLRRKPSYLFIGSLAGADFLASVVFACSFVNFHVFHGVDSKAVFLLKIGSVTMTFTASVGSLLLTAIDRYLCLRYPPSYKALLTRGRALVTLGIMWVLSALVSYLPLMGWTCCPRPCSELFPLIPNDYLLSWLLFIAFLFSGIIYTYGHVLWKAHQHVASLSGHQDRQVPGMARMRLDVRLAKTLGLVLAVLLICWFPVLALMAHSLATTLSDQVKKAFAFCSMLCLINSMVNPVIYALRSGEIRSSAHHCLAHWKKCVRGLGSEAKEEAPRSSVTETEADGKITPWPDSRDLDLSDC
T1 sequence (Q9Y2T6 whole entry): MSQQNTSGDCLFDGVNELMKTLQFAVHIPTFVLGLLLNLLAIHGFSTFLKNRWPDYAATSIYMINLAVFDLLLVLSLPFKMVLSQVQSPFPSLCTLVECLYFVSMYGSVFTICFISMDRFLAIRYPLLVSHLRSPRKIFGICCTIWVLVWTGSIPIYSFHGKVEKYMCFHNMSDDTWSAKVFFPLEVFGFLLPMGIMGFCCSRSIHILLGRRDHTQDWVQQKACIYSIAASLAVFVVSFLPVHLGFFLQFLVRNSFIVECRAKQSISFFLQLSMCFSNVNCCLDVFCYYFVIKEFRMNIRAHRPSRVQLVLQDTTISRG
Cannabinoid receptor 1, sequence (P21554 whole entry): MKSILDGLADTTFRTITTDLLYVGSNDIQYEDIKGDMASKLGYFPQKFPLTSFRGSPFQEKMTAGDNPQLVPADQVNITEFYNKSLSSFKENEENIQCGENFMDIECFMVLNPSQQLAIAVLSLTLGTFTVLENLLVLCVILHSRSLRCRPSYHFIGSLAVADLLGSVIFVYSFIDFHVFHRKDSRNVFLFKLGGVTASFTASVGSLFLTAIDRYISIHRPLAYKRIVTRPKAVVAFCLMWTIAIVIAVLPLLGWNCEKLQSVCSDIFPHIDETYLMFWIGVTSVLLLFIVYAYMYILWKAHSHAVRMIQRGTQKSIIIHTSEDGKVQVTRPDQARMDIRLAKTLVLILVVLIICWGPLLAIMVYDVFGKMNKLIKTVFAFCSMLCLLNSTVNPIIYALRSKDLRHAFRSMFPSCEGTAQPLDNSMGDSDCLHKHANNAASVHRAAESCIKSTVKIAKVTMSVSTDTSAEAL

| SMILES | IC50 [1] | Imax [1] | Ki (Cannabinoid receptor 1) | inhibition (Cannabinoid receptor 1) | %max [2] | EC50 [2] | %max [3] | EC50 [4] | Ki (Cannabinoid receptor 2) | inhibition (Cannabinoid receptor 2) | Imax [5] | IC50 [6] | inhibition [5] | Imax (Cannabinoid receptor 1) |
| --- | --- | --- | --- | --- | --- | --- | --- | --- | --- | --- | --- | --- | --- | --- |
| O=C1/C(=C/c2cccc(OCCCCCCCOc3ccc(Cl)cc3)c2)N=C2SCCCN12 | > 10 µM | 16% | > 10 µM | 46% | 34% | > 10 µM | 3% | > 10 µM | > 10 µM | 15% | 97% | 1.71 µM |  |  |
| O=C1NC(=S)S/C1=C\c1cccc(OCc2ccc(Cl)cc2)c1 | > 10 µM | -18% | > 10 µM | 47% | 29% | > 10 µM | -38% | > 10 µM | > 10 µM | 26% | 22% | > 10 µM |  |  |
| Cc1ccc(COc2cccc(/C=C3\N=C4SCCCN4C3=O)c2)cc1 | 9.45 µM | 134% | > 10 µM | 22% | -31% | > 10 µM | 2% | > 10 µM | > 10 µM | 25% | 61% | 3.59 µM |  |  |
| O=C1/C(=C/c2cccc(OCCCCCCOc3cccc(Cl)c3)c2)N=C2SCCCN12 | > 10 µM | 37% | > 10 µM | 33% | 28% | > 10 µM | 0% | > 10 µM | > 10 µM | 46% | 55% |  |  |  |
| O=C1NC(SCc2ccc(F)cc2)=N/C1=C\c1cccc(OCc2ccc(Cl)cc2)c1 | > 10 µM | 44% | > 10 µM | 42% | -21% | > 10 µM | 23% | > 10 µM | > 10 µM | 19% | 27% | > 10 µM |  |  |
| O=C1/C(=C/c2cccc(OCCCOc3ccc(Cl)cc3)c2)N=C2SCCCN12 | > 10 µM | 38% | > 10 µM | 18% | -36% | > 10 µM | -16% | > 10 µM | > 10 µM | -2% | 113% | 3.25 µM |  |  |
| O=C1NC(SCCc2ccccc2)=N/C1=C\c1cccc(OCc2ccc(Cl)cc2)c1 | > 10 µM | 27% | > 10 µM | 18% | 21% | > 10 µM | 2% | > 10 µM | > 10 µM | 33% | 103% | 4.78 µM |  |  |
| Cc1ccc(CSC2=N/C(=C\c3cccc(OCc4ccc(Cl)cc4)c3)C(=O)N2C)cc1 | > 10 µM | 33% | > 10 µM | 15% | 20% | > 10 µM | 7% | > 10 µM | > 10 µM | 25% | 17% | > 10 µM |  |  |
| CSC1=N/C(=C\c2cccc(OCc3ccc(Cl)cc3)c2)C(=O)N1C | > 10 µM | 35% | > 10 µM | 19% | -2% | > 10 µM | -2% | > 10 µM | > 10 µM | 24% | 23% | > 10 µM |  |  |
| CN1C(=N)NC(=O)/C1=C/c1cccc(OCc2ccc(Cl)cc2)c1 | > 10 µM | -5% | > 10 µM | 43% | 22% | > 10 µM | 6% | > 10 µM | 22.8 µM |  | 4% | > 10 µM |  |  |
| O=C1/C(=C/c2cccc(OCCOc3ccc(Cl)cc3)c2)N=C2SCCCN12 | 10.1 µM | 99% | > 10 µM | 21% | -20% | > 10 µM | -10% | > 10 µM | > 10 µM | -9% | 123% | 5 µM |  |  |
| CCc1ccc(OCCCCCCOc2cccc(/C=C3\N=C4SCCCN4C3=O)c2)cc1 | > 10 µM | 37% | > 10 µM | 13% | 47% | > 10 µM | 0% | > 10 µM | > 10 µM | 13% | 99% | 25 µM |  |  |
| O=C1NC(SCc2ccccc2)=N/C1=C\c1cccc(OCc2ccc(Cl)cc2)c1 | > 10 µM | 17% | > 10 µM | 11% | 21% | > 10 µM | -17% | > 10 µM | > 10 µM | 46% | 3% | > 10 µM |  |  |
| O=C1NC(SCc2ccc(Cl)cc2)=N/C1=C\c1cccc(OCc2ccc(Cl)cc2)c1 | > 10 µM | 41% | > 10 µM | 36% | -10% | > 10 µM | 5% | > 10 µM | > 10 µM | 30% | 35% | > 10 µM |  |  |
| Cc1cccc(C)c1OCCCCCCOc1cccc(/C=C2\N=C3SCCCN3C2=O)c1 | > 10 µM | 32% | > 10 µM | 13% | 33% | > 10 µM | 3% | > 10 µM | > 10 µM | 46% |  | 10 µM | 55% |  |
| O=C1N=C2SCCN2/C1=C\c1cccc(OCc2ccc(Cl)cc2)c1 | > 10 µM | 19% | 1.67 µM |  | 2% | > 10 µM | 13% | > 10 µM | > 10 µM | 41% | 25% | > 10 µM |  | 60% |
| Cc1ccc(CSC2=N/C(=C\c3cccc(OCc4ccc(Cl)cc4)c3)C(=O)N2)cc1 | > 10 µM | 48% | > 10 µM | 38% | -12% | > 10 µM | 4% | > 10 µM | > 10 µM | 22% | 0% | > 10 µM |  |  |
| O=C1/C(=C/c2cccc(OCCCc3ccccc3)c2)N=C2SCCCN12 | 6.04 µM | 132% | > 10 µM | 11% | -49% | > 10 µM | -30% | > 10 µM | > 10 µM | 23% | 136% | 1.49 µM |  |  |
| O=C1/C(=C/c2cccc(OCCc3ccccc3)c2)N=C2SCCCN12 | 29.3 µM | 130% | > 10 µM | 24% | -42% | > 10 µM | 8% | > 10 µM | > 10 µM | 19% | 16% | > 10 µM |  |  |
| O=C1NC(=O)/C(=C/c2cccc(OCc3ccc(Cl)cc3)c2)S1 | > 10 µM | -1% | 5.04 µM |  | 22% | > 10 µM | -1% | > 10 µM | > 10 µM | 41% | -10% | > 10 µM |  | 67% |
| O=C1/C(=C/c2cccc(OCCCCOc3ccc(Cl)cc3)c2)N=C2SCCCN12 | > 10 µM | 26% | > 10 µM |  | 11% | > 10 µM | -16% | > 10 µM | > 10 µM | 3% | 116% | 2.38 µM |  |  |
| O=C1/C(=C/c2cccc(OCCCCCCCCOc3ccc(Cl)cc3)c2)N=C2SCCCN12 | > 10 µM | 43% | > 10 µM | -9% | -18% | > 10 µM | -25% | > 10 µM | > 10 µM | -3% | 124% | 1.15 µM |  |  |
| O=C1/C(=C/c2cccc(OCc3ccc(Br)cc3)c2)N=C2SCCCN12 | 45.8 µM | 116% | > 10 µM | 4% | -19% | > 10 µM | -9% | > 10 µM | > 10 µM | 4% | 74% | 1.73 µM |  |  |
| O=C1NC(=S)N/C1=C\c1cccc(OCc2ccc(Cl)cc2)c1 | 32.4 µM | 118% | > 10 µM | 30% | 5% | > 10 µM | -14% | > 10 µM | > 10 µM | 19% | 165% | 33 µM |  |  |

From ChEMBL document CHEMBL4152303, “Structure-activity relationships of imidazothiazinones and analogs as antagonists of the cannabinoid-activated orphan G protein-coupled receptor GPR18” (Eur J Med Chem, 2018)
